In US20160207950A1, “ORGA[…]-2-CYANO-1-HYDROXYPROPAN-2-YL FOR USE AS ANTHELMINTICS” (UNIVERSITÄT ZÜRICH, priority 2013, published 2016):
Read-outs that look alike come from different tables or passages of the source.

What was measured:
[1] = tested on: human cervical cancer HeLa; assay: fluorometric cell viability assay (Resazurin), toxicity towards HeLa; type: cell-based; details: 2 days treatment
Procedure: Cell Culture: Human cervical carcinoma cells (HeLa) were cultured in DMEM (Gibco) supplemented with 5% fetal calf serum (FCS, Gibco), 100 U/ml penicillin, 100 μg ml streptomycin at 37° C. and 5% CO2. The normal human fetal lung fibroblast MRC-5 cell line was maintained in F-10 medium (Gibco) supplemented with 10% FCS (Gibco), 200 mmol/l L-Glutamine, 100 U/ml penicillin, and 100 μg/ml streptomycin at 37° C. and 5% CO2. Toestablish the anticancer potential of the compounds they were tested in one cell line, namely HeLa by a fluorometric cell viability assay using Resazurin (Promocell GmbH). Compounds showing cytotoxicity were then tested on normal MRC-5 cells. 1 day before treatment, cells were plated in triplicates in 96-well plates at a density of 4×10^3 cells/well in 100 μl for HeLa and 7×10^3 cells/well for MRC-5 cells. Cells were treated with increasing concentrations of the compounds for 2 days. After 2 days, medium and drug were removed and […] fresh medium containing Resazurin (0.2 mg/ml final concentration) were added. After 4 h of incubation at 37° C., the highly red fluorescent dye resorufin's fluorescence was quantified at 590 nm emission with 540 nm excitation wavelength in the SpectraMax M5 microplate Reader. […]

C. elegans = C. elegans movement inhibition assay
Procedure: C. elegans movement inhibition assay: Asynchronous N2 C. elegans worms (Bristol) were maintained on nematode growth medium (NGM) agar, seeded with a lawn on OP50 E coli as a food-source, according to standard protocol (Maintenance of C. elegans; Stiernagle, T., Ed.; WormBook, 2006.). Worms were harvested from NGM plates by washing with M9 buffer (42 mmol/l Na2HPO4, 22 mmol/l KH2PO4, 86 mmol/l NaCl and 1 mmol/l MgSO4), aspiration and collection in a 10 mL tube (Falcon). The average number of worms in 5 μL of this suspension was calculated by transferring 4×5 μL aliquots to a glass slide (Menzel Glaser), and worms were enumerated under a compound microscope (Olympus CH30). To adjust the suspension to contain 1 worm per μL, M9 buffer was either added or removed after pelleting worms at 600× g for 30 sec.
Dilution of test compounds, Zolvix (monepantel) and DMSO for working stock solutions and 96 well plate set-up for liquid screen: A volume of 70 μL of M9 buffer was added to each well in a 96-well plate, using a multichannel pipettor. A volume of 20 μL of worm suspension was added to each well using a single-channel pipettor, with a trimmed pipette tip (increased aperture to minimize damage to worms). […]
Quantitative worm mobility scoring: Immobile worms were counted as a percentage of total worms in each well using an Olympus SZ30 dissecting microscope. […]

[2] = tested on: Trychostrongylus colubriformis; assay: Activity in vitro against Trichostrongylus colubriformis (egg hatch / larval development)
Procedure: (§1) Activity in Vitro against Haemonchus contortus & Trichostrongylus colubriformis (Gastrointestinal nematodes).
(§2) Freshly harvested and cleaned nematode eggs are used to seed a suitably formatted microplate containing the test substances to be evaluated for antiparasitic activity. Each compound is tested by serial dilution in order to determine its MED. The test compounds are diluted in nutritive medium allowing the full development of eggs through to 3rd instar larvae. The plates are incubated for 6 days at 28° C. and 60% relative humidity (RH). Egg-hatching and ensuing larval development are recorded to identify a possible nematocidal activity. Efficacy is expressed in percent reduced egg hatch, reduced development of L3, or paralysis & death of larvae of all stages.

Haemonchus Contortus = assay: Activity in vitro against Haemonchus contortus (egg hatch / larval development)
Procedure: as §1, §2

| Substance | IC50 [1] [µM] | Number of L3 H. contortus/100 μM (H. contortus) | mobility of the C. elegans worms (in words) (C. elegans; 50 μM) | Mobility in C. elegans at 50 μM (C. elegans; 24 h incubation) [%] | Activity against Trychostrongylus colubriformis at 10 [mg/mL] ([2]; listed as compound 1) | Activity against Trychostrongylus colubriformis at 10 [mg/mL] ([2]; listed as drawing 26) [%] | Activity against Haemonchus Contortus at 10 [mg/mL] (Haemonchus Contortus; listed as compound 1) | Activity against Haemonchus Contortus at 10 [mg/mL] (Haemonchus Contortus; listed as drawing 26) [%] | efficacy against dirofilaria immitis (in words) (Dirofilaria immitis) | Activity against Dirofilaria immitis at 10 [mg/mL] (Dirofilaria immitis; 10 mg/mL) [%] | Activity against Trychostrongylus colubriformis at 10 [mg/mL] [2] [%] | Activity against Haemonchus Contortus at 10 [mg/mL] (Haemonchus Contortus) [%] |
| --- | --- | --- | --- | --- | --- | --- | --- | --- | --- | --- | --- | --- |
| N-(2-cyano-1-(5-cyano-2-(trifluoromethyl)phenoxy)propan-2-yl)ferroceneamide [Compound 1] | 93.2 | >100 | significantly reduced | 2 | up to 69% | 68 | up to 69% | 69 | – | – | – | – |
| N-(2-cyano-1-(5-cyano-2-(trifluoromethyl)phenoxy)propan-2-yl)ruthenoceneamide [Compound 1a] | > 100 | – | – | – | – | – | – | – | moderate efficacy | 30 | 0 | 0 |
